We go through three compounds from US12502383B2, “Pharmaceutical composition of cyclooxygenase-2 inhibitors” (THEMIS MEDICARE LIMITED, priority 2019, dated 2025).

Where two headings read alike, the source gives them in different places.

For data set [1] the following is noted: in vivo; cited from earlier work.
The conditions of data set [2]: cited from earlier work.
The conditions of data set [3]: cited from earlier work. The source holds these as a separate data set.
For data set [4] the following is noted: after oral and intravenous administration; cited from earlier work.
Data set [5] can be described thus: Solubilization of Etoricoxib in solubilizers. In kind it is physicochemical. The protocol: The ratio of active to solubilizers between 1:35 to 1:135.71 gives good solubilization of coxib. Satisfactory compositions can be produced wherein ration of active to solubilizer is between 1:35 to 1:58.33. Etoricoxib 1.4 mg ie 0.14% w/v can be solubilized in Twin 80, 8% w/v and Transcutol 3% w/v. It can also be solubilized in Ethanol and Tween 8% w/v each and Transcutol 3% w/v. One can consider it as 3 solubilizers or 2 solubilizers and one solvent.

Data set [6] concerns Dog. The settings on record: intravenous: Dog; cited from earlier work.
Data set [7] deals with mouse. The note with it: cited from earlier work.
The subject of data set [8] is rabbit. The settings on record: intravenous: rabbit; cited from earlier work.

With `Cc1ccc(-c2cc(C(F)(F)F)nn2-c2ccc(S(N)(=O)=O)cc2)cc1` [Celecoxib, 4-[5-(4-methylphenyl)-3-(trifluoromethyl)pyrazol-1-yl]benzenesulfonamide], in data set [1], the drug eliminated unchanged was below 3%. Further, in data set [2], the “Solubility in anhydrous ethanol” value was “freely soluble to soluble”, the “Solubility in methylene chloride” value is recorded as “soluble”, the Solubility in water result is listed as “practically insoluble” and the “solubility in DMF” value is listed as “approximately 25 mg/ml”. Further, in data set [2], the “solubility in DMSO” value is reported as “approximately 16.6 mg/ml” and the solubility in ethanol entry is reported as “approximately 25 mg/ml”.
For the compound `Cc1ccc(-c2ncc(Cl)cc2-c2ccc(S(C)(=O)=O)cc2)cn1` [Etoricoxib], the protein binding entry in data set [3] is given as “about 92%”. In addition, the Bioavailability in data set [4] is reported as 100%. In data set [5] (in Ethanol and Tween 8% w/v each and Transcutol 3% w/v), the Etoricoxib solubilized result is reported as “solubilized”. In addition, the Etoricoxib solubilized in data set [5] (in Twin 80, 8% w/v and Transcutol 3% w/v) worked out at 1.4 mg. Also, in data set [2], the “Solubility in 2-propanol” value is recorded as “sparingly soluble”; the “Solubility in isopropyl acetate, ethanol and toluene” value is recorded as “soluble”; the “Solubility in methanol, tetrahydrofuran, dimethyl sulfoxide, methyl ethyl ketone, dimethyl formamide, and chloroform” value is “freely soluble”; the Solubility in water entry is given as “practically insoluble”.
For `CCOCCOCCO` [Transcutol, Diethylene Glycol Monoethyl Ether], the LD50 was 3 mL/kg in data set [6], 4300 µL/kg in data set [7] (intravenous: mouse), 5500 µL/kg in data set [7] (subcutaneous: mouse) and 2500 µL/kg in data set [8].
